Test results taken from BindingDB's records for doi:10.1016/s0960-894x(99)00495-3 (Tokyo University of Pharmacy & Life Science, 1999).

Test: Compound was evaluated for inhibition of PNP-catalyzed inosine […] in Cellulomonas sp

| SMILES | IC50 |
| --- | --- |
| Nc1nc2c(ncn2CCCCC(F)(F)P(=O)(O)O)c(=O)[nH]1 [9-(5',5'-difluoro-5'-phosphonopentyl)guanine] | 540 nM |
| O=c1[nH]cnc2c1ncn2CC[C@@H]1C[C@H]1C(F)(F)P(=O)(O)O [(Difluoro-{(1R,2S)-2-[2-(6-oxo-1,6-dihydro-purin-9-yl)-ethyl]-cyclopropyl}-methyl)-phosphonic acid] | 70 nM |
| Nc1nc2c(ncn2CC[C@@H]2C[C@H]2C(F)(F)P(=O)(O)O)c(=O)[nH]1 [({(1R,2S)-2-[2-(2-Amino-6-oxo-1,6-dihydro-purin-9-yl)-ethyl]-cyclopropyl}-difluoro-methyl)-phosphonic acid] | 390 nM |
| O=c1[nH]cnc2c1ncn2C[C@@H]1COC[C@@H]1CC(F)(F)P(=O)(O)O [{1,1-Difluoro-2-[(3R,4R)-4-(6-oxo-1,6-dihydro-purin-9-ylmethyl)-tetrahydro-furan-3-yl]-ethyl}-phosphonic acid] | 35 nM |
| O=c1[nH]cnc2c1ncn2C[C@H]1COC[C@@H]1CC(F)(F)P(=O)(O)O [{1,1-Difluoro-2-[(3R,4S)-4-(6-oxo-1,6-dihydro-purin-9-ylmethyl)-tetrahydro-furan-3-yl]-ethyl}-phosphonic acid] | 37 nM |
